# Reference: US8471041B2 (priority 2010, dated 2013)
# Experiments:
# physchem [1] = settings: organic solvent or mixture
# physchem [2] = settings: water
structure (smiles),measurement,setting,value
"O=C(CBr)N1CC([N+](=O)[O-])([N+](=O)[O-])C1 [ABDNAZ, N-(bromoacetyl)-3,3-dinitroazetidine]",solubility,physchem [1],~30 mg/mL
same,solubility,physchem [2],0.3 to 1.3 mg/mL
